Measured values: patent US20170202782A1 (Abraxis BioScience, LLC, priority 2014, published 2017)

Columns and labels:
Bcl-w = target: T1, Bcl-w (Homo sapiens, UniProt Q92843); conditions: cited from earlier work
T1 sequence (Q92843 1-193): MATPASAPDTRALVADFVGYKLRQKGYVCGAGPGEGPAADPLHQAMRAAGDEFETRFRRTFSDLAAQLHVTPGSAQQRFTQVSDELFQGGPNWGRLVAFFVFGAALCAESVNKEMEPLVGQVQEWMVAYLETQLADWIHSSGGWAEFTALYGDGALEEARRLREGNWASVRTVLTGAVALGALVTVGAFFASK

[1] = test system: human pancreatic carcinoma MiaPACA2 xenograft tumors; assay: CIVO arrayed microinjection into xenografted MiaPACA2 tumors, immunofluorescence (CC3, pHH3)
Description: Microinjections were performed using the CIVO™ arrayed microinjection device (Presage Biosciences, Seattle Wash.). This device enables simultaneous delivery of multiple drug samples, each individually, directly into spatially defined positions within a living tumor. The CIVO device having a 5 needle array was inserted transcutaneously into flank tumors of anesthetized mice.
24 hours later, tumors were resected and sectioned across the axis of injection to produce histological sections of tumor that show the 5 different sites of injection.
Circular regions of interests (ROI) centered on the injection sites were inscribed. Within each ROI, the fraction of cells expressing CC3 was mapped as a function of radial distance from the injection site. To generate radial response plots, calculations were made at 100 micron intervals and were based on all cells within a 100 micron wide band centered at each radial distance. Measurements began at 200 microns to exclude regions directly affected by needle induced injury.
Tumors from a first set of mice were processed for immunofluorescence analysis with CC3 antibodies 24 hours after injection (FIG. 3A), and tumors from a second set were processed for analysis with CC3 antibodies 48 hours after injection (FIG. 3B). […]

SMILES | Ki (Bcl-w) [nM] | CC3 positive cells at the site of injection ([1]; MiaPACA2 tumors, 24 hours, diminished with increasing radial distance (FIG. 2)) | synergy with Abraxane in inducing tumor cell death ([1]; solid tumor models, combination with Abraxane (summary statement))
CC1(C)CCC(c2ccc(Cl)cc2)=C(CN2CCN(c3ccc(C(=O)NS(=O)(=O)c4ccc(N[C@H](CCN5CCOCC5)CSc5ccccc5)c(S(=O)(=O)C(F)(F)F)c4)cc3)CC2)C1 [ABT-263] | ≤ 1 | – | –
CC1(C)CCC(CN2CCN(c3ccc(C(=O)NS(=O)(=O)c4ccc(NCC5CCOCC5)c([N+](=O)[O-])c4)c(Oc4cnc5[nH]ccc5c4)c3)CC2)=C(c2ccc(Cl)cc2)C1 [ABT-199] | – | increase | not observed
